Read-outs that look alike come from different tables or passages of the source.
Legend:
STK3 = tested on: STK3; parameters: method as in Klaeger et al. (2017); details: STK3, 4 cell line mix lysate, Kinobeads y, ref Klaeger et al. (2017); cited from earlier work
RPS6KA6 = tested on: RPS6KA6; parameters: method as in Reinecke et al. (2023); details: RPS6KA6, 5 cell line mix lysate, Kinobeads ε, ref Reinecke et al. (2023), cited from earlier work
PRKD1 = tested on: PRKD1; parameters: method as in Reinecke et al. (2023); details: PRKD1, 5 cell line mix lysate, Kinobeads ε, ref Reinecke et al. (2023), cited from earlier work
CSNK2B = details: 5 cell line mix lysate, Kinobeads ε, ref Reinecke et al. (2023), cited from earlier work
MAPKAPK5 = tested on: MAPKAPK5; parameters: method as in Reinecke et al. (2023); details: MAPKAPK5, 5 cell line mix lysate, Kinobeads ε, ref Reinecke et al. (2023), cited from earlier work
LCK = target: LCK; parameters: method as in Reinecke et al. (2023); details: 5 cell line mix lysate, Kinobeads ε, ref Reinecke et al. (2023), cited from earlier work
[1] = target: several subunits of CSNK2; assay: Kinobeads competition pulldown in AsPC-1 lysate; assay type: binding, human; details: read-out: KDapp
Procedure: This was followed by incubation with Kinobeads ε (17.5 µl of settled beads) for 30 min at 4 °C to enrich kinases. […] Enriched proteins were reduced with 50 mM DTT in 8 M urea, 40 mM Tris-HCl, pH 7.4 for 30 min at room temperature, and alkylated with 55 mM chloroacetamide. After reducing the urea concentration to 1–2 M, proteins were digested with trypsin at 37 °C for 16 h. Subsequently, eluted peptides were desalted using SepPak tC18 µElution plates (Waters), freeze-dried by vacuum centrifugation, and stored at −20 °C.
For LC-MS/MS, dried peptides were reconstituted in 0.1% formic acid and analyzed on a Dionex Ultimate3000 nano HPLC (Thermo Scientific) coupled to an Orbitrap Fusion Tribrid mass spectrometer (Thermo Scientific), which was run in data-dependent mode. […]
Oxidized methionine and N-terminal acetylation were set as variable modification, and cysteine carbamidomethylation was set as fixed modification. Label-free quantification (LFQ) and match-between-runs were enabled. […]
Proteins were filtered by potential contaminants, reversed hits and proteins identified only by site. Residual binding of proteins was calculated from LFQ intensities as the ratio between drug doses and vehicle. […] Only kinases quantified with at least 4 unique peptides in the vehicle experiment were considered. […]

[2] = tested on: HPDE (immortalized pancreatic duct cell line); assay: Drug combination viability screen (ATPlite, 72 h); assay type: cell-based, human; details: HPDE; for EC50: Homo sapiens;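 on AUC: area under vehicle-normalized viability curve scaled 0 to 100 percent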;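 on Curve bottom: fraction of vehicle control viability from four-parameter log-logistic fit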
Procedure: (§1) Cell viability was assessed by measuring ATP levels to indicate metabolic activity.
(§2) Afterward, small amounts were transferred to 384-well intermediate plates (Greiner Bio-One GmbH, Germany). […] For drug combination screening, 1000 to 5000 cells were seeded into 384-well plates (CulturPlate™, Perkin Elmer, MA, USA) using a Multidrop™ Combi Reagent Dispenser (Thermo Scientific, MA, USA) in 50 µl medium per well 24 h prior to drug treatment (seeding densities see Appendix Table S1). […] The final DMSO concentration in each well was 0.2%. […] Eight wells per plate without library drug served as negative controls, and sixteen wells per plate containing 5 µM Staurosporine served as positive controls. Control plates not containing any drug were used to correct for incubation effects, and data quality was assessed by calculation of Z-prime of positive and negative controls according to1 Z-prime=1−3SDpos+3SDneg/[…] where SD is the standard deviation. […] Dose–response curves from the experimental and hypothetical data were compared, and shifts in AUC were used to describe combination effects (AUC∆ = AUChypothetical − AUCexperimental). […] Only combinations with R^2 > 0.8 in both conditions were considered in the synergy analysis.

PSN-1 cells = assay: Drug combination viability screen (ATPlite, 72 h); assay type: cell-based, human; details: for EC50: Homo sapiens, PSN1;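 on AUC: area under vehicle-normalized viability curve scaled 0 to 100 percent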;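 on Curve bottom: fraction of vehicle control viability from four-parameter log-logistic fit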
Procedure: as §1, §2

Compound: C[C@]12O[C@H](C[C@]1(O)CO)n1c3ccccc3c3c4c(c5c6ccccc6n2c5c31)CNC4=O [Lestaurtinib]
- EC50 (STK3): 39.2 nM

Compound: COc1cc(N2CCC(N3CCN(C)CC3)CC2)ccc1Nc1ncc(Cl)c(Nc2ccccc2P(C)(C)=O)n1 [Brigatinib]
- EC50 (RPS6KA6): 93.6 nM
- pKDapp (RPS6KA6): 7.40
- Kd (RPS6KA6; read-out: KDapp): 39.5 nM
- EC50 (PRKD1): 45.9 nM
- pKDapp (PRKD1): 7.50
- Kd (PRKD1; read-out: KDapp): 31.4 nM
- Kd (CSNK2B; read-out: KDapp): 508 nM
- EC50 (CSNK2B): 508 nM
- pKDapp (CSNK2B): 6.29
- EC50 (MAPKAPK5): 62.7 nM
- pKDapp (MAPKAPK5): 7.23
- Kd (MAPKAPK5; read-out: KDapp): 58.3 nM
- Kd (LCK; read-out: KDapp): 963 nM
- EC50 (LCK): 2190 nM
- pKDapp (LCK): 6.02

Compound: Nc1nn2cc(F)cnc2c1C(=O)Nc1cncc(F)c1N1CCC(C(=O)N2CCN(C3COC3)CC2)CC1 [Gartisertib]
- Kd [1]: 10 to 20 nM

Compound: Nc1ccn([C@@H]2O[C@H](CO)[C@@H](O)C2(F)F)c(=O)n1 [GEM, Gemcitabine]
- Reponse ([2]; R1, 13.72 nM): 2430360
- Reponse ([2]; R1, 41.15 nM): 2458400
- Reponse ([2]; R1, […] nM): 2746800
- Reponse ([2]; R1, 370.37 nM): 2410520
- Reponse ([2]; R1, 1111.11 nM): 2265000
- Reponse ([2]; R1, 3333.33 nM): 1887440
- Reponse ([2]; R1, 10000 nM): 1259640
- Reponse ([2]; R2, 13.72 nM): 3059000
- Reponse ([2]; R2, 41.15 nM): 2844720
- Reponse ([2]; R2, […] nM): 2708840
- Reponse ([2]; R2, 370.37 nM): 2516400
- Reponse ([2]; R2, 1111.11 nM): 2343080
- Reponse ([2]; R2, 3333.33 nM): 1957840
- Reponse ([2]; R2, 10000 nM): 1504480
- Curve bottom ([2]; GEM curve fit): 0.27
- Curve effect size ([2]; GEM curve fit): 0.73
- Curve slope ([2]; GEM curve fit): 1.67
- Curve top ([2]; GEM curve fit): 1.00
- AUC ([2]; GEM curve fit, in %): 48.78
- EC50 ([2]; read-out: EC50): 4.34 nM
- EC50 ([2]; read-out: pEC50 (converted)): 4.37 nM
- EC50 (PSN-1 cells; read-out: EC50): 3.44 nM
- EC50 (PSN-1 cells; read-out: pEC50 (converted)): 3.47 nM
- Reponse (PSN-1 cells; PSN-1, R1, 13.72 nM): 1225440
- Reponse (PSN-1 cells; PSN-1, R1, 41.15 nM): 969400
- Reponse (PSN-1 cells; PSN-1, R1, […] nM): 806840
- Reponse (PSN-1 cells; PSN-1, R1, 370.37 nM): 818640
- Reponse (PSN-1 cells; PSN-1, R1, 1111.11 nM): 786440
- Reponse (PSN-1 cells; PSN-1, R1, 3333.33 nM): 785720
- Reponse (PSN-1 cells; PSN-1, R1, 10000 nM): 723120
- Reponse (PSN-1 cells; PSN-1, replicate R2, dose 13.72 nM, raw signal): 1542400
- Reponse (PSN-1 cells; PSN-1, replicate R2, dose 41.15 nM, raw signal): 1210080
- Reponse (PSN-1 cells; PSN-1, replicate R2, dose 123.46 nM, raw signal): 1089000
- Reponse (PSN-1 cells; PSN-1, replicate R2, dose 370.37 nM, raw signal): 1103640
- Reponse (PSN-1 cells; PSN-1, replicate R2, dose 1111.11 nM, raw signal): 1004960
- Reponse (PSN-1 cells; PSN-1, replicate R2, dose 3333.33 nM, raw signal): 1071400
- Reponse (PSN-1 cells; PSN-1, replicate R2, dose 10000 nM, raw signal): 1052080
- AUC (PSN-1 cells; PSN-1, GEM curve fit): 35.4%
- Curve bottom (PSN-1 cells; PSN-1, GEM curve fit): 0.11
- Curve effect size (PSN-1 cells; PSN-1, GEM curve fit): 0.89
- Curve slope (PSN-1 cells; PSN-1, GEM curve fit): 2.16
- Curve top (PSN-1 cells; PSN-1, GEM curve fit): 1.03

Reference: article PMC11876601 (Molecular Systems Biology, 2025)
